One assay addresses T1, LlFpg (Lactococcus lactis subsp. cremoris, UniProt P42371).
T1 construct: made in house; host or cells: E. coli BH540 (fpg defective)
The assay can be described thus: LlFpg 8-oxoG-DNA glycosylase/AP lyase activity assay (Urea-PAGE radioassay). In kind it is biochemical. The conditions noted are these: for IC50: catalytic activity at 37 °C, compound stock (redox mixture) in DMSO, 20 nM 8-oxoG:C 24-mer, 2 nM LlFpg. The method, then:
Figure 1 Effect of 2-thioxanthine (2TX)-derivatives on Fpg activity. A total of 20 nM of 5′-[^32P]-8-oxoG-containing 24-bp DNA duplex (labeled on the damaged strand) was incubated with 2 nM of LlFpg alone (dimethyl sulfoxide (DMSO) control) or with the indicated 2TX and 2TX-derivatives (TXn) concentrations, as described in the “Materials and Methods” section. (a) Screening of TXn for Fpg inhibition. Averages and standard deviations were obtained from at least three independent experiments. Mono- and di-thiolated compounds are highlighted in red and blue, respectively. (b) Dose-response curves for best inhibitors. Each data point represents the mean value obtained from at least three independent measurements.
Fpg, hNeil1 and mvNei1 are bifunctional DNA glycosylases associated with concerted DNA glycosylase activity (cleavage of the N-glycosidic bond between the base lesion and the C1′ of the deoxyribose) and AP lyase activity that comprises the successive cleavage of the phosphodiester bonds at the 3′ and 5′ of the resulting abasic (AP) site, respectively (β, δ-elimination). Thus, AP sites that result from the excision of the damaged base are quantitatively converted into one nucleoside gap by these enzymes. The DNA glycosylase/AP lyase activity of each enzyme was measured by incubating 20 nM of 24-mer DNA duplexes ([OG:C] and [DHU:G] for Fpg and hNeil1/mvNei1, respectively) 5′-labeling on the damaged strand (see above) with 2 nM of Fpg, or mvNei1 for 15 min or, with 20 nM of hNeil1 for 30 min at 37 °C in 10 mM Tris-HCl, pH 7.6, 150 mM NaCl, 1 mM EDTA, 0.1 mg/mL BSA and 8% DMSO. The reaction was stopped by the addition of 1 volume of formamide loading buffer (96% formamide, 20 mM Tris/HCl pH 8.0 and 2 mM Na2EDTA), heated at 80 °C for 2 min and then analyzed by 20% Urea-PAGE, as previously described. […] Under these conditions, only 50% of the substrate is converted to the cleavage product (limiting enzyme concentration conditions). For an initial evaluation of the inhibitory effect, 40 µM of 2TX/TXn was used. The thio-compound was added to the reaction mixture before the final addition of the enzyme (competition condition). For the best identified inhibitors, a dose-response curve was generated and IC50^A determined (Figure 1 and Table 1).

The target in a further assay is T2, LlFpg/DNA complex C1 (Lactococcus lactis subsp. cremoris, UniProt P42371).
T2 construct: made in house; host or cells: E. coli BH540 (fpg defective)
The assay is described as follows: EMSA, Fpg DNA binding to 14-mer [THF:C] duplex, complex C1 (lesion recognition complex, Fpg/DNA 1/1). To be noted: for IC50: 0.1 nM 14-mer [THF:C], preformed complex; for IC50 / number of TXn equivalents per one protein equivalent for 50% inhibition of DNA binding activity, C1: 0.25 nM Fpg; for number of TXn equivalents per one protein equivalent for 50% inhibition of DNA binding activity, C1: value in parentheses; for effect on stability of complex C1 in the presence of TCEP: [1/1] molar ratio TCEP/compound (1 mM each), Figure S6. An excerpt: To complement this study, we examined the effect of TXn on the binding of Fpg to a short DNA duplex containing a tetrahydrofuran (THF), a non-cleavable AP site analog. The enzyme specifically recognizes THF and forms a stable abortive complex with DNA [18, 34, 35, 36]. […] A representative titration experiment (with and without TCEP) of the 14-mer [THF:C] Fpg formed two stable complexes with this short DNA probe that were easily observed by EMSA: a high-affinity complex C1 corresponding to the lesion recognition complex (LRC), with nanomolar affinity, and a complex C2 only observed at higher Fpg concentrations. C2 results in C1 titration by a second Fpg molecule. This finding illustrates that the crystal structure of Fpg bound to 8-oxoG-carbanucleotide-containing DNA [38] (Figure S5). The stability of each preformed complex was then examined by EMSA in the presence of 2TX or TXn. […] The enzyme inactivation mediated by 2TX through ZnF oxidation that directly affects the DNA binding properties of the enzyme is also in agreement with this last observation.
Figure 2 The effect of 2TX and TXn on Fpg DNA binding to abasic site-containing DNA. A 14-mer DNA duplex containing a tetrahydrofurane (THF) site as an abasic site analog was incubated with a limiting Fpg concentration (0.25 nM) with and without increasing concentrations of TXn. Incubation mixtures were then analyzed by electrophoretic mobility shift assay (EMSA), as described in the ‘Materials and Methods’. (a) Titration experiments with (+) and without (-) 2 mM tris(2-carboxyethyl)phosphine hydrochloride (TCEP) C1 and C2 are for the [1/1] and [2/1] Fpg/DNA complexes, respectively (see detailed in the text). (b) Fpg DNA binding concentration-dependence for 2TX and the more efficient TXn inhibitors. A representative EMSA autoradiography with 0.25 nM of Fpg alone (lane no) and 0.5, 2.5, 5, 10, 20, 40, 50, 250, 1000 µM is shown in the upper panel. IC50app^B corresponds to the TXn amount needed to halve the C1 complex formation and was extracted from the dose-response curves (lower panel; Table 1).
The DNA binding activity was measured using EMSA [37]. Briefly, 0.1 nM of the 5′-labeled 14-mer [THF:C] (see above) was incubated with the enzyme at 4 °C for 30 min in 25 mM HEPES/NaOH (pH 7.5), 150 mM NaCl, 5% glycerol, 0.1 mg/mL BSA and 8% DMSO. The incubation mixture was then loaded onto a native 10% polyacrylamide gel (Acryl/Bis 19/1) and electrophoresed at 25 V/cm for 90 min at 4 °C. After electrophoresis, the gels were dried and exposed overnight for autoradiography using a Typhoon imager and quantified with ImageQuant software. To evaluate the inhibitor effect of 2TX/TXn on the DNA binding activity of each Fpg/Nei enzyme, we first determined the experimental conditions required to bind 50% of the DNA probes without an inhibitor in the presence of 8% DMSO (limiting enzyme concentration). Under these conditions, we obtained the half-maximal DNA binding 0.25, 7 and 5 nM of Fpg, hNeil1 and mvNei1. We used this limited enzyme concentrations to evaluate the inhibitor effect of 2TX/TXn on the enzyme DNA binding activity. This effect was determined by the addition of the thio-compound in the pre-equilibrium mixture of the enzyme and DNA probe (30 min) and incubated for an additional 30 min at 4 °C. For the best inhibitors of Fpg, a dose-response curve was established from at least three independent experiments and the IC50 was determined (IC50^B, Table 1).
On the technique in general: In EMSA bound probe runs differently from free probe, usually more slowly.

Setting [1] is: IC50app^A (Fpg/Nei enzyme catalysis) LlFpg.
The mark [2] stands for this setting: IC50app^B (Fpg DNA binding) C1, DNA binding at 4 °C.
The mark [3] stands for this setting: read-out: IC50app^A (Fpg/Nei enzyme catalysis) LlFpg.
Where [4] appears, read: DNA binding at 4 °C, read-out: IC50app^B (Fpg DNA binding) C1.

Read-outs that look alike come from different tables or passages of the source.

T2 sequence (P42371 2-273, one chain of several): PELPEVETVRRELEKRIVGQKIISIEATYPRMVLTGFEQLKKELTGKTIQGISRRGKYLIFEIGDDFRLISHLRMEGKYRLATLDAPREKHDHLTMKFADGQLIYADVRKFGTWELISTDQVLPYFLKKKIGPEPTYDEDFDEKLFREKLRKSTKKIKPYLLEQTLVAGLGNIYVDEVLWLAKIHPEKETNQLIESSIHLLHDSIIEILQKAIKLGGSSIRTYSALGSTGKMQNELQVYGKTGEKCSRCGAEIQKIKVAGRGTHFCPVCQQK
T1 sequence (P42371 2-273): as the sequence (P42371 2-273, one chain of several) above

As for `O=c1[nH]c2[nH]c(=S)[nH]c(=O)c2[nH]1` [TX14, 2-thio-6,8-dioxopurine], the IC50 at LlFpg (setting [1]) is 28 ± 7 µM; at LlFpg/DNA complex C1 (setting [2]), 25.1 ± 2.4 µM. Moreover, the “number of TXn equivalents per one protein equivalent for 50% inhibition of DNA binding activity, C1” value on LlFpg/DNA complex C1 turned out to be 100.

Take `FC(F)(F)c1nc(S)c2nc[nH]c2n1` [TX13, 2-trifluoromethyl-6-thiopurine]: the IC50 at LlFpg (setting [3]) came out at 7.5 ± 1 µM. For the same molecule, the “effectiveness on Fpg relative to 2TX” value on LlFpg (from IC50app^A) is “seven times more effective than 2TX”. In addition, at LlFpg/DNA complex C1 (setting [4]), the IC50 was found to be 6.1 ± 0.5 µM. For the same molecule, at LlFpg/DNA complex C1, the “effect on stability of complex C1 in the presence of TCEP” value is reported as “remained stable” and the “number of TXn equivalents per one protein equivalent for 50% inhibition of DNA binding activity, C1” value came to 98.

As to `Nc1ncnc2[nH]c(S)nc12` [TX27], the IC50 on LlFpg (setting [1]) turned out to be 20 ± 2 µM. The molecule further registered an IC50 on LlFpg/DNA complex C1 (setting [2]) of 44.2 ± 8 µM. In addition, at LlFpg/DNA complex C1, the “effect on stability of complex C1 in the presence of TCEP” value was “remained stable” and the “number of TXn equivalents per one protein equivalent for 50% inhibition of DNA binding activity, C1” value was found to be 177.

Regarding `O=c1[nH]c(=S)[nH]c2[nH]c(=S)[nH]c12` [TX19], the IC50 on LlFpg (setting [3]) stood at 15 ± 1 µM; on LlFpg/DNA complex C1 (setting [4]), 17.1 ± 2.4 µM. The “number of TXn equivalents per one protein equivalent for 50% inhibition of DNA binding activity, C1” value at LlFpg/DNA complex C1 worked out at 68.

`O=c1[nH]c(=S)[nH]c2nc[nH]c12` [Compound 2TX, 2-thioxanthine, reference compound]: the IC50 amounted to 48 ± 4 µM at LlFpg (setting [3]) and 113 ± 17 µM on LlFpg/DNA complex C1 (setting [4]).

Values taken from paper PMC7139703, “Thiopurine Derivative-Induced Fpg/Nei DNA Glycosylase Inhibition: Structural, Dynamic and Functional Insights” (International Journal of Molecular Sciences, 2020).
